This is an account of results in ChEMBL document CHEMBL2390944, “Discovery and optimization of arylsulfonyl 3-(pyridin-2-yloxy)anilines as novel GPR119 agonists” (Bioorg Med Chem Lett, 2013).

A short description of series [1]: in vivo. The settings on record: rat, iv, 0.5 mg/kg.
A short description of series [2]: in vitro. The conditions noted are these: human, liver microsomes.
The nature of series [3]: Metabolic stability in mouse liver microsomes assessed as compound turnover after 30 mins. Format: ADME, Microsome. The conditions noted are these: read-out: Drug metabolism. For orientation: Liver microsomes are vesicles of endoplasmic reticulum, rich in cytochrome P450 enzymes.

Each structure is given as a SMILES string.

`N#Cc1c(C(F)(F)F)cc(C2CC2)nc1Oc1cccc(NS(=O)(=O)c2ccc(Cl)cc2)c1`: in series [1], the clearance was 3.17 mL/min/kg. Moreover, in series [2], the metabolised at 0.5 h came to 13%.
Regarding `Cc1ccc(S(=O)(=O)Nc2cccc(Oc3nc(C)cc(C)c3C#N)c2)cc1`, the values for the metabolised at 0.5 h in series [3] and in series [2] were 100% and 72%, respectively.

As usually defined, the clearance is a measure of how efficiently the substance is removed, as volume per time.
